For one assay, the target named is T1, DGKα (Homo sapiens, UniProt P23743).
T1 construct: His; purchased Signal Chem D21-10BH
Kind of assay: In vitro DGKα inhibition assay (ADP-Glo). It is filed as biochemical. The conditions noted are these: His-tagged human recombinant enzyme; 0.1 nM DGKα, 50 μM ATP, 20 μM DLG; 90 minute incubation; ADP-Glo luminescence. Put shortly: (§1)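 His-tagged human recombinant enzymes with DLG lipid substrate (20 μM) in Tris pH 7.5 buffer with MgCl2/CaCl2; DGKα 0.1 nM with 50 μM ATP, DGKζ 0.4 nM with 30 μM ATP.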

The next assay deals with DGKζ (Homo sapiens, UniProt Q13574). The assay is described as follows: In vitro DGKζ inhibition assay (ADP-Glo). The format is biochemical. The note with it: His-tagged human recombinant enzyme; 0.4 nM DGKζ, 30 μM ATP, 20 μM DLG; 90 minute incubation; ADP-Glo luminescence. Summed up:
as §1
A general note: ADP-Glo turns the ADP formed in a reaction into a luminescent signal.

The results in this text go back to US20240217989A1, “Heteroaryl Fluoroalkenes As DGK Inhibitors” (Incyte Corporation, priority 2022, published 2024).

In general, IC50 refers to the concentration that gives 50% inhibition.

Sequence of DGKζ (Q13574 whole entry): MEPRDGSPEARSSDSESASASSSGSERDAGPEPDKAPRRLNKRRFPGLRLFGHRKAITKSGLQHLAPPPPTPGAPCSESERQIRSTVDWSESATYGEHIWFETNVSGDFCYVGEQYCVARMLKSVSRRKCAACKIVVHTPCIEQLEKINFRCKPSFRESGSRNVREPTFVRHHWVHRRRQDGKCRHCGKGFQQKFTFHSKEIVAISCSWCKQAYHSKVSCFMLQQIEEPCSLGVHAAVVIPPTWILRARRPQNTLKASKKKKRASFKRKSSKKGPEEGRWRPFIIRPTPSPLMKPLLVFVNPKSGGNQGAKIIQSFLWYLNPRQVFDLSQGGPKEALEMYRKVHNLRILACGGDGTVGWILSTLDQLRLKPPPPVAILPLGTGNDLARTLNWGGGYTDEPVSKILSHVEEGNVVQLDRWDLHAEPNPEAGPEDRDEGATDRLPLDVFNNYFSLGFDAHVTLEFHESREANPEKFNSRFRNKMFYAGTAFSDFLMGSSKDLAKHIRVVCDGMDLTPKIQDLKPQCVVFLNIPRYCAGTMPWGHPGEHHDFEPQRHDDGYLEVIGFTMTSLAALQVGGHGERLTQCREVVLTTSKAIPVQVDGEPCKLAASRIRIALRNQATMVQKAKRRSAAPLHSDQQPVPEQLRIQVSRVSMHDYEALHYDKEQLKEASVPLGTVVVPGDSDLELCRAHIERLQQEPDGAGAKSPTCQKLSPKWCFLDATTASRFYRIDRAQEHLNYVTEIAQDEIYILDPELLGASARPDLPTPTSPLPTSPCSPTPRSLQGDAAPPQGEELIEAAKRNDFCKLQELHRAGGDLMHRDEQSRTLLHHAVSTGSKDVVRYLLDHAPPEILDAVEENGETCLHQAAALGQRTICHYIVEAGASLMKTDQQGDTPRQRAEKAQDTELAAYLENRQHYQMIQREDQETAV
T1 sequence (P23743 whole entry): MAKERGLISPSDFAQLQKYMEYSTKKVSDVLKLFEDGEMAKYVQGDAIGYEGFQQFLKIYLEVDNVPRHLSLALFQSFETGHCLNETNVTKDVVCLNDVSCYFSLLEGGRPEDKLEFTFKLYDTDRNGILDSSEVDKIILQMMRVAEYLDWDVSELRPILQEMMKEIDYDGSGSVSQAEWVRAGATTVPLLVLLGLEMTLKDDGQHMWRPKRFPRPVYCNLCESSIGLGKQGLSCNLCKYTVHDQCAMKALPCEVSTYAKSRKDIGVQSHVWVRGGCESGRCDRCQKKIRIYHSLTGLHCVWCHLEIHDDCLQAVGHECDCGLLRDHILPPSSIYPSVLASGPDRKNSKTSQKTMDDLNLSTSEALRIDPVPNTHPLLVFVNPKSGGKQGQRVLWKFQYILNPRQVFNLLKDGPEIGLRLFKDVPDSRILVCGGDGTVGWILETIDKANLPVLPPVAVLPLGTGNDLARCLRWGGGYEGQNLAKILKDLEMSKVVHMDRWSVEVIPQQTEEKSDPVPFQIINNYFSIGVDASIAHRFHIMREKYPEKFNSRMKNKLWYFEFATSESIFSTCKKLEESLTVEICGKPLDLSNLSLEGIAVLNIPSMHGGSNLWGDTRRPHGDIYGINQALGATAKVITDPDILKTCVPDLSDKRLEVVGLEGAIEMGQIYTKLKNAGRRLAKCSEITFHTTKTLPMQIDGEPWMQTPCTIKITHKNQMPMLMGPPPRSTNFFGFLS

As for `F/C(=C\c1ccc(Oc2cccc(F)c2F)c(C(F)(F)F)c1N1CCCC2(CCN(CC3CC3)CC2)C1)c1cncc(-c2cnsc2)n1` [Example 47, (Z)-4-(6-(2-(2-(9-(Cyclopropylmethyl)-2,9-diazaspiro[5.5]undecan-2-yl)-4-(2,3-difluorophenoxy)-3-(trifluoromethyl)phenyl)-1-fluorovinyl)pyrazin-2-yl)isothiazole], the IC50 at DGKα and on DGKζ was not above 20 nM each time.
Regarding `F/C(=C\c1ccc(Oc2ccccc2)c(C(F)(F)F)c1N1CCOC2(CCN(CC3CC3)CC2)C1)c1cccc(-c2ccnnc2)n1` [Example 27, (Z)-9-(Cyclopropylmethyl)-4-(6-(2-fluoro-2-(6-(pyridazin-4-yl)pyridin-2-yl)vinyl)-3-phenoxy-2-(trifluoromethyl)phenyl)-1-oxa-4,9-diazaspiro[5.5]undecane], the IC50 on DGKα and at DGKζ was not above 20 nM each time.
Take `F/C(=C\c1ccc(Oc2ccccc2)c(C(F)(F)F)c1N1CCCC2(CCN(CC3CC3)CC2)C1)c1cncc(N2CC(F)(F)C2)n1` [Example 15, (Z)-9-(Cyclopropylmethyl)-2-(6-(2-(6-(3,3-difluoroazetidin-1-yl)pyrazin-2-yl)-2-fluorovinyl)-3-phenoxy-2-(trifluoromethyl)phenyl)-2,9-diazaspiro[5.5]undecane]: the IC50 at DGKα and on DGKζ was not above 20 nM in each case.
With `F/C(=C\c1ccc(Oc2ccccc2)c(C(F)(F)F)c1N1CCCC2(CCN(CC3CC3)CC2)C1)c1nccc(-c2ccnnc2)n1` [Example 28, (Z)-9-(Cyclopropylmethyl)-2-(6-(2-fluoro-2-(4-(pyridazin-4-yl)pyrimidin-2-yl)vinyl)-3-phenoxy-2-(trifluoromethyl)phenyl)-2,9-diazaspiro[5.5]undecane], the IC50 at DGKα and on DGKζ was not above 20 nM each time.
Regarding `F/C(=C\c1ccc(Oc2ccccc2)c(C(F)(F)F)c1N1CCCC2(CCN(CC3CC3)CC2)C1)c1cncc(N2CCC(F)(F)C2)n1` [Example 19, (Z)-9-(Cyclopropylmethyl)-2-(6-(2-(6-(3,3-difluoropyrrolidin-1-yl)pyrazin-2-yl)-2-fluorovinyl)-3-phenoxy-2-(trifluoromethyl)phenyl)-2,9-diazaspiro[5.5]undecane], the 50% inhibitory concentration (IC50) on DGKα and at DGKζ was not above 20 nM each time.
With `CCN1CCC2(CCCN(c3c(/C=C(\F)c4nccc(-c5ccnnc5)n4)ccc(Oc4ccccc4F)c3C(F)(F)F)C2)CC1` [Example 40, (Z)-9-Ethyl-2-(6-(2-fluoro-2-(4-(pyridazin-4-yl)pyrimidin-2-yl)vinyl)-3-(2-fluorophenoxy)-2-(trifluoromethyl)phenyl)-2,9-diazaspiro[5.5]undecane], the 50% inhibitory concentration (IC50) on DGKα and on DGKζ was not above 20 nM each time.
In the case of `CCN1CCC2(CCCN(c3c(/C=C(\F)c4cncc(N5CCC(F)(F)C5)n4)ccc(Oc4ccccc4F)c3C(F)(F)F)C2)CC1` [Example 58, (Z)-2-(6-(2-(6-(3,3-Difluoropyrrolidin-1-yl)pyrazin-2-yl)-2-fluorovinyl)-3-(2-fluorophenoxy)-2-(trifluoromethyl)phenyl)-9-ethyl-2,9-diazaspiro[5.5]undecane], the half-inhibitory concentration (IC50) on DGKα and on DGKζ was not above 20 nM throughout.
For `F/C(=C\c1ccc(Oc2ccc(F)cc2F)c(C(F)(F)F)c1N1CCCC2(CCN(CC3CC3)CC2)C1)c1cncc(-c2ccnnc2)n1` [Example 38, (Z)-9-(Cyclopropylmethyl)-2-(3-(2,4-difluorophenoxy)-6-(2-fluoro-2-(6-(pyridazin-4-yl)pyrazin-2-yl)vinyl)-2-(trifluoromethyl)phenyl)-2,9-diazaspiro[5.5]undecane], the half-inhibitory concentration (IC50) on DGKα and on DGKζ was not above 20 nM throughout.
For the molecule `CCN1CCC2(CC1)CN(c1c(/C=C(\F)c3cncc(-c4ccnnc4)n3)ccc(Oc3ccccc3F)c1C(F)(F)F)CCO2` [Example 35, (Z)-9-Ethyl-4-(6-(2-fluoro-2-(6-(pyridazin-4-yl)pyrazin-2-yl)vinyl)-3-(2-fluorophenoxy)-2-(trifluoromethyl)phenyl)-1-oxa-4,9-diazaspiro[5.5]undecane], the half-inhibitory concentration (IC50) at DGKα and on DGKζ was not above 20 nM throughout.
For the molecule `CCN1CCC2(CC1)CN(c1c(/C=C(\F)c3cncc(-c4ccnnc4)n3)ccc(OC3CC3)c1C(F)(F)F)CCO2` [Example 14, (Z)-4-(3-Cyclopropoxy-6-(2-fluoro-2-(6-(pyridazin-4-yl)pyrazin-2-yl)vinyl)-2-(trifluoromethyl)phenyl)-9-ethyl-1-oxa-4,9-diazaspiro[5.5]undecane], the IC50 on DGKα and at DGKζ was 20 to 200 nM in each case.
Turning to `CCN1CCC2(CCCN(c3c(/C=C(\F)c4cncc(N5CCC(F)(F)C5)n4)ccc(Oc4ccccc4)c3C(F)(F)F)C2)CC1` [Example 20, (Z)-2-(6-(2-(6-(3,3-Difluoropyrrolidin-1-yl)pyrazin-2-yl)-2-fluorovinyl)-3-phenoxy-2-(trifluoromethyl)phenyl)-9-ethyl-2,9-diazaspiro[5.5]undecane], the IC50 at DGKα and at DGKζ was not above 20 nM in each case.
For the molecule `F/C(=C\c1ccc(OC2CCCCC2)c(C(F)(F)F)c1N1CCCC2(CCN(CC3CC3)CC2)C1)c1cncc(-c2ccnnc2)n1` [Example 48, (Z)-2-(3-(Cyclohexyloxy)-6-(2-fluoro-2-(6-(pyridazin-4-yl)pyrazin-2-yl)vinyl)-2-(trifluoromethyl)phenyl)-9-(cyclopropylmethyl)-2,9-diazaspiro[5.5]undecane], the IC50 on DGKα and at DGKζ was not above 20 nM throughout.
On to `CCN1CCC2(CCCN(c3c(/C=C(\F)c4cncc(N5CC(F)(F)C5)n4)ccc(Oc4ccccc4F)c3C(F)(F)F)C2)CC1` [Example 44, (Z)-2-(6-(2-(6-(3,3-Difluoroazetidin-1-yl)pyrazin-2-yl)-2-fluorovinyl)-3-(2-fluorophenoxy)-2-(trifluoromethyl)phenyl)-9-ethyl-2,9-diazaspiro[5.5]undecane], for which the half-inhibitory concentration (IC50) on DGKα and on DGKζ was not above 20 nM throughout.
Turning to `F/C(=C\c1ccc(Oc2ccccc2)c(C(F)(F)F)c1N1CCOC2(CCN(CC3CC3)CC2)C1)c1nccc(-c2ccnnc2)n1` [Example 23, (Z)-9-(Cyclopropylmethyl)-4-(6-(2-fluoro-2-(4-(pyridazin-4-yl)pyrimidin-2-yl)vinyl)-3-phenoxy-2-(trifluoromethyl)phenyl)-1-oxa-4,9-diazaspiro[5.5]undecane], the IC50 on DGKα was 20 to 200 nM; at DGKζ, not above 20 nM.
For `OCCN1CCC2(CCCN(c3c(/C=C(\F)c4nccc(-c5cnsc5)n4)ccc(Oc4ccccc4F)c3C(F)(F)F)C2)CC1` [Example 45, (Z)-2-(2-(6-(2-Fluoro-2-(4-(isothiazol-4-yl)pyrimidin-2-yl)vinyl)-3-(2-fluorophenoxy)-2-(trifluoromethyl)phenyl)-2,9-diazaspiro[5.5]undecan-9-yl)ethan-1-ol] the same measures were not above 20 nM and not above 20 nM.
The matching figures for `CCN1CCC2(CC1)CN(c1c(/C=C(\F)c3nccc(-c4ccnnc4)n3)ccc(Oc3ccccc3F)c1C(F)(F)F)CCO2` [Example 41, (Z)-9-Ethyl-4-(6-(2-fluoro-2-(4-(pyridazin-4-yl)pyrimidin-2-yl)vinyl)-3-(2-fluorophenoxy)-2-(trifluoromethyl)phenyl)-1-oxa-4,9-diazaspiro[5.5]undecane]: not above 20 nM and not above 20 nM.
As to `CCN1CCC2(CCCN(c3c(/C=C(\F)c4cncc(N5CC(F)(F)C5)n4)ccc(Oc4ccccc4)c3C(F)(F)F)C2)CC1` [Example 16, (Z)-2-(6-(2-(6-(3,3-Difluoroazetidin-1-yl)pyrazin-2-yl)-2-fluorovinyl)-3-phenoxy-2-(trifluoromethyl)phenyl)-9-ethyl-2,9-diazaspiro[5.5]undecane], the figures for the IC50 on DGKα and on DGKζ were 20 to 200 nM and not above 20 nM, respectively.
In the case of `F/C(=C\c1ccc(Oc2ccccc2F)c(C(F)(F)F)c1N1CCCC2(CCN(CC3CC3)CC2)C1)c1cncc(-c2ccnnc2)n1` [Example 37, (Z)-9-(Cyclopropylmethyl)-2-(6-(2-fluoro-2-(6-(pyridazin-4-yl)pyrazin-2-yl)vinyl)-3-(2-fluorophenoxy)-2-(trifluoromethyl)phenyl)-2,9-diazaspiro[5.5]undecane], the IC50 at DGKα and on DGKζ was not above 20 nM each time.
As to `F/C(=C\c1ccc(Oc2ccccc2F)c(C(F)(F)F)c1N1CCOC2(CCN(CC3CC3)CC2)C1)c1nccc(-c2ccnnc2)n1` [Example 42, (Z)-9-(Cyclopropylmethyl)-4-(6-(2-fluoro-2-(4-(pyridazin-4-yl)pyrimidin-2-yl)vinyl)-3-(2-fluorophenoxy)-2-(trifluoromethyl)phenyl)-1-oxa-4,9-diazaspiro[5.5]undecane], the IC50 at DGKα and at DGKζ was not above 20 nM throughout.
Turning to `N#Cc1ncc(N2CC(F)(F)C2)nc1/C(F)=C/c1ccc(Oc2ccccc2F)c(C(F)(F)F)c1N1CCC[C@@H](CN)C1` [Example 3, (S,Z)-3-(2-(2-(3-(Aminomethyl)piperidin-1-yl)-4-(2-fluorophenoxy)-3-(trifluoromethyl)phenyl)-1-fluorovinyl)-5-(3,3-difluoroazetidin-1-yl)pyrazine-2-carbonitrile], the IC50 at DGKα and on DGKζ was not above 20 nM throughout.
Consider `F/C(=C\c1ccc(Oc2ccccc2F)c(C(F)(F)F)c1N1CCCC2(CCN(CC3CC3)CC2)C1)c1nccc(-c2ccnnc2)n1` [Example 39, (Z)-9-(Cyclopropylmethyl)-2-(6-(2-fluoro-2-(4-(pyridazin-4-yl)pyrimidin-2-yl)vinyl)-3-(2-fluorophenoxy)-2-(trifluoromethyl)phenyl)-2,9-diazaspiro[5.5]undecane], for which the IC50 at DGKα and on DGKζ was not above 20 nM throughout.
